The source of these data is ChEMBL document CHEMBL3045409, “Synthesis and biological evaluation of ester derivatives of indomethacin as selective COX-2 inhibitors” (Med Chem Res, 2012).

As usually defined, the inhibition in vivo is the share of the control response that was lost under treatment. The term inhibition denotes the drop in the measured response relative to a control, in per cent.

Series [1] relates to Rattus norvegicus. In words: Anti-inflammatory activity in Rattus norvegicus Sprague-Dawley (rat) assessed as inhibition of carrageenan-induced paw edema at 10 mg/kg, po after 1.5 to 3 hr relative to control. The class given is functional.
Series [2] has as its system Rattus norvegicus. Put plainly: Ulcerogenic activity in Rattus norvegicus Sprague-Dawley (rat) assessed as ulcer index at 10 mg/kg, po after 8 hr. The series is classed as toxicity, organism-based. To be noted: in vivo. Details: dose 10 mg/kg, route oral.
Series [3] concerns the target T1, Prostaglandin G/H synthase 1 (Ovis aries) (UniProt P05979).
T1 sequence (whole entry): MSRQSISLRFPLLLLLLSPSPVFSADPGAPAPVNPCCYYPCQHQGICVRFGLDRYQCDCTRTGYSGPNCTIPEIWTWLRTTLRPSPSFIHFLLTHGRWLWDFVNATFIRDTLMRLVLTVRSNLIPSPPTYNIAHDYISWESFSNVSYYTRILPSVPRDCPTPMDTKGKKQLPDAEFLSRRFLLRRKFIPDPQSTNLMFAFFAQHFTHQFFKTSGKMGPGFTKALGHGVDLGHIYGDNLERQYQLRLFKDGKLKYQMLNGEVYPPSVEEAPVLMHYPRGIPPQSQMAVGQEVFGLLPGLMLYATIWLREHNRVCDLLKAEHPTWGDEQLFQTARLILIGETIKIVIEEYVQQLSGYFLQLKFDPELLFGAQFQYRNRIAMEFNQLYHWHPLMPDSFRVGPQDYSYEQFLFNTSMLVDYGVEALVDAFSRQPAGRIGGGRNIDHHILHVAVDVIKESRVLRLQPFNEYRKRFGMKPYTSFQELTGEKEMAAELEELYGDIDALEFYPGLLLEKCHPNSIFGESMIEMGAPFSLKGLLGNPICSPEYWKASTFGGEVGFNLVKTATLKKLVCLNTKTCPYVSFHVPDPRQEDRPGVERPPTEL
In words: Inhibition of Ovis aries (sheep) COX-1 assessed as appearance of oxidized N,N,N',N'-tetramethyl-p-phenylenediamine at 20 uM by colorimetric analysis.

Take `COc1ccc2c(c1)c(CC(=O)O)c(C)n2C(=O)c1ccc(Cl)cc1` [INDOMETHACIN]: in the series with Rattus norvegicus [1], the inhibition in vivo at 10 mg/kg turned out to be 13.9%. Besides, the UI with Rattus norvegicus [2] was found to be 50.

As for `CCc1ccc(OC(=O)Cc2c(C)n(C(=O)c3ccc(Cl)cc3)c3ccc(OC)cc23)cc1`, the inhibition in vivo at 10 mg/kg in the series with Rattus norvegicus [1] was determined as 2.41%.

Consider `COc1ccc2c(c1)c(CC(=O)Oc1c(Cl)c(Cl)c(Cl)c(Cl)c1Cl)c(C)n2C(=O)c1ccc(Cl)cc1`, for which, in the series with Rattus norvegicus [1], the inhibition in vivo at 10 mg/kg was 0%.

For the compound `COc1ccc2c(c1)c(CC(=O)OCCN1CCCCC1)c(C)n2C(=O)c1ccc(Cl)cc1`, the inhibition in vivo at 10 mg/kg with Rattus norvegicus [1] is 7.23%.

In the case of `COc1ccc2c(c1)c(CC(=O)OCCc1c(C)cc(C)cc1C)c(C)n2C(=O)c1ccc(Cl)cc1`, the inhibition in vivo at 10 mg/kg with Rattus norvegicus [1] amounted to 9.04%.

Regarding `COc1ccc2c(c1)c(CC(=O)OCCN1CCNCC1)c(C)n2C(=O)c1ccc(Cl)cc1`, the inhibition in vivo at 10 mg/kg with Rattus norvegicus [1] is 0%.

Regarding `CCCCOC(=O)c1ccc(OC(=O)Cc2c(C)n(C(=O)c3ccc(Cl)cc3)c3ccc(OC)cc23)cc1`, in the series with Rattus norvegicus [1], the inhibition in vivo at 10 mg/kg amounted to 7.83%.

As for `CCOC(=O)c1ccc(OC(=O)Cc2c(C)n(C(=O)c3ccc(Cl)cc3)c3ccc(OC)cc23)cc1`, the inhibition in vivo at 10 mg/kg in the series with Rattus norvegicus [1] is 19.9%. Moreover, the inhibition in series [3] was determined as 12.9%. The UI in the series with Rattus norvegicus [2] amounted to 0.

With `COc1ccc2c(c1)c(CC(=O)OCc1ccccc1)c(C)n2C(=O)c1ccc(Cl)cc1`, the inhibition in vivo at 10 mg/kg with Rattus norvegicus [1] worked out at 3.61%.

For `COc1ccc2c(c1)c(CC(=O)OCc1ccoc1)c(C)n2C(=O)c1ccc(Cl)cc1`, the inhibition in vivo at 10 mg/kg in the series with Rattus norvegicus [1] came to 0%.

Take `COc1ccc2c(c1)c(CC(=O)Oc1ccc([N+](=O)[O-])cc1)c(C)n2C(=O)c1ccc(Cl)cc1`: in the series with Rattus norvegicus [1], the inhibition in vivo at 10 mg/kg was 4.81%.

`COc1ccc2c(c1)c(CC(=O)Oc1ccc(Cl)cc1)c(C)n2C(=O)c1ccc(Cl)cc1`: the inhibition in vivo at 10 mg/kg with Rattus norvegicus [1] was found to be 0%.
